Measured values published in patent publication US6900219B2, “ABCA-1 elevating compounds” (CV Therapeutics, Inc., priority 2002, dated 2005).

System: ABCA-1 gene
Test: compounds tested and found to elevate cellular expression of the ABCA-1 gene (Examples 1-6; test not named)
Type: cell-based
Procedure: Activity testing is conducted as described in those patents and patent applications referenced above, and in the Examples below, and by methods apparent to one skilled in the art.

| Molecule | cellular expression of the ABCA-1 gene |
| --- | --- |
| 2-[(4-methylethylphenyl)carbonylamino]-1,3-thiazoline-4-carboxylic acid | elevate cellular expression of the ABCA-1 gene |
| 2-[({2-[4-(6-chlorobenzothiazol-2-yl)piperazinyl]ethyl}oxycarbonyl)methylthio]acetic acid | elevate cellular expression of the ABCA-1 gene |
| 6-(2-aminophenyl)-3-(methylethylthio)-2H-1,2,4-triazin-5-one | elevate cellular expression of the ABCA-1 gene |
| CCc1cc(OC(=O)c2ccco2)n(-c2cccc(Cl)c2)n1 [1-(3-chlorophenyl)-3-ethylpyrazol-5-yl furan-2-carboxylate] | elevate cellular expression of the ABCA-1 gene |
| CCCc1c(C(=O)N2CCN(C(=O)C(CC)c3ccccc3)C(C)C2)cnn1-c1nc(-c2cccc(OC)c2)cs1 (stereo not drawn) [1-(4-{1-[4-(3-methoxy-phenyl)-thiazol-2-yl]-5-propyl-1H-pyrazole-4-carbonyl}-2-methyl-piperazin-1-yl)-2-phenyl-butan-1-one] | elevate cellular expression of the ABCA-1 gene |
| CCc1c(C(=O)N2CCN(C(=O)C(c3ccccc3)c3ccccc3)C(C)C2)cnn1-c1nc(-c2ccc(Cl)cc2)cs1 (stereo not drawn) [1-(4-{1-[4-(4-chloro-phenyl)-thiazol-2-yl]-5-ethyl-1H-pyrazole-4-carbonyl}-2-methyl-piperazin-1-yl)-2,2-diphenyl-ethanone] | elevate cellular expression of the ABCA-1 gene |
| CCc1c(C(=O)N2CCN(C(=O)C(CC)c3ccccc3)C(C)C2)cnn1-c1nc(-c2ccc(Cl)cc2)cs1 (stereo not drawn) [1-(4-{1-[4-(4-chloro-phenyl)-thiazol-2-yl]-5-ethyl-1H-pyrazole-4-carbonyl}-2-methyl-piperazin-1-yl)-2-phenyl-butan-1-one] | elevate cellular expression of the ABCA-1 gene |
| CCc1c(C(=O)N2CCN(C(=O)C(c3ccccc3)c3ccccc3)C(C)C2)cnn1-c1nc(-c2ccc(OC)cc2)cs1 (stereo not drawn) [1-(4-{5-ethyl-1-[4-(4-methoxy-phenyl)-thiazol-2-yl]-1H-pyrazole-4-carbonyl}-2-methyl-piprazin-1-yl)-2,2-diphenyl-ethanone] | elevate cellular expression of the ABCA-1 gene |
| CCc1c(C(=O)N2CCN(C(=O)C(C)C)C(C)C2)cnn1-c1nc(-c2ccc(OC)cc2)cs1 (stereo not drawn) [1-(4-{5-ethyl-1-[4-(4-methoxy-phenyl)-thiazol-2-yl]-1H-pyrazole-4-carbonyl}-2-metyl-piperazin-1-yl)-2-methyl-propan-1-one] | elevate cellular expression of the ABCA-1 gene |
| CCCCCCCC(=O)N1CCC2(CC1)OCCO2 [1-(8-aza-1,4-dioxaspiro[4.5]dec-8-yl)octan-1-one] | elevate cellular expression of the ABCA-1 gene |
| O=[N+]([O-])c1ccc(OCCOc2ccc([N+](=O)[O-])cc2)cc1 [1-nitro-4-[2-(4-nitrophenoxy)ethoxy]benzene] | elevate cellular expression of the ABCA-1 gene |
| COc1ccccc1NC(=O)N(CCc1ccccc1)C(C)c1nc2ccccc2c(=O)n1-c1ccc(Br)cc1 (stereo not drawn) [1-{1-[3-(4-bromophenyl)-4-oxo-3,4-dihydro-quinazolin-2-yl]-ethyl}-3-(2-methoxy-phenyl-1-phenethylurea] | elevate cellular expression of the ABCA-1 gene |
| COc1ccc(-c2nc3cc(/N=C/c4cccc([N+](=O)[O-])c4)ccc3o2)cc1 [1-{5-[(1E)-1-aza-2-(3-nitrophenyl)vinyl]benzoxazol-2-yl}-4-methoxybenzene] | elevate cellular expression of the ABCA-1 gene |
| C1=C(c2ccccc2)Nc2nc3ccccc3n2C1c1ccccc1 (stereo not drawn) [2,4-diphenyl-1,4,5-trihydropyrimidino[1,2-a]benzimidazole] | elevate cellular expression of the ABCA-1 gene |
| Nc1cc(C(F)(F)F)ccc1N1CCc2ccccc2C1 [2-(2-1,2,3,4-tetrahydroisoquinolyl)-5-(trifluoromethyl)phenylamine] | elevate cellular expression of the ABCA-1 gene |
| O=C(NC1=NC(C(=O)O)CS1)c1ccc2c(c1)OCO2 (stereo not drawn) [2-(2H-benzo[3,4-d]1,3-dioxolan-5-ylcarbonylamino)-1,3-thiazoline-4-carboxylic acid] | elevate cellular expression of the ABCA-1 gene |
| Nc1nc(-c2ccc(Cl)cc2)nc2sc3c(c12)CCCCC3 [2-(4-chlorophenyl)-5,6,7,8,9-pentahydrocyclohepta[1,2-b]pyrimidino[5,4-d]thiophene-4-ylamine] | elevate cellular expression of the ABCA-1 gene |
| Nc1ccccc1-c1nc(-c2ccc(Cl)cc2)no1 [2-[3-(4-chlorophenyl)-1,2,4-oxadiazol-5-yl]phenylamine] | elevate cellular expression of the ABCA-1 gene |
| CC(C)(C)c1ccc(-c2nc3cccc(F)c3c(=O)o2)cc1 [2-[4-(tert-butyl)phenyl]-5-fluorobenzo[d]1,3-oxazin-4-one] | elevate cellular expression of the ABCA-1 gene |
| COc1ccc(/C=C/c2nc3ccccc3c(=O)[nH]2)cc1OC [2-[(1E)-2-(3,4-dimethoxyphenyl)vinyl]-3-hydroquinazolin-4-one] | elevate cellular expression of the ABCA-1 gene |

| Molecule | cellular expression of the ABCA-1 gene |
| --- | --- |
| O=c1oc(/C=C/c2ccc(Cl)cc2)nc2ccccc12 [2-[(1E)-2-(4-chlorophenyl)vinyl]benzo[d]1,3-oxazin-4-one] | elevate cellular expression of the ABCA-1 gene |
| O=C(NC1=NC(C(=O)O)CS1)c1ccccc1C(F)(F)F (stereo not drawn) [2-[(2-trifluoromethylphenyl)carbonylamino]-1,3-thiazoline-4-carboxylic acid] | elevate cellular expression of the ABCA-1 gene |
| COc1cc(C(=O)NC2=NC(C(=O)O)CS2)cc(OC)c1OC (stereo not drawn) [2-[(3,4,5-trimethoxyphenyl)carbonylamino]-1,3-thiazoline-4-carboxylic acid] | elevate cellular expression of the ABCA-1 gene |
| O=C(NC1=NC(C(=O)O)CS1)c1ccc(Cl)c(Cl)c1 (stereo not drawn) [2-[(3,4-dichlorophenyl)carbonylamino]-1,3-thiazoline-4-carboxylic acid] | elevate cellular expression of the ABCA-1 gene |
| O=C(NC1=NC(C(=O)O)CS1)c1cc(C(F)(F)F)cc(C(F)(F)F)c1 (stereo not drawn) [2-[(3,5-bistrifluoromethylphenyl)carbonylamino]-1,3-thiazoline-4-carboxylic acid] | elevate cellular expression of the ABCA-1 gene |
| COc1cccc(C(=O)NC2=NC(C(=O)O)CS2)c1 (stereo not drawn) [2-[(3-methoxyphenyl)carbonylamino]-1,3-thiazoline-4-carboxylic acid] | elevate cellular expression of the ABCA-1 gene |
| COc1ccc(C(=O)NC2=NC(C(=O)O)CS2)cc1 (stereo not drawn) [2-[(4-methoxyphenyl)carbonylamino]-1,3-thiazoline-4-carboxylic acid] | elevate cellular expression of the ABCA-1 gene |
| Cc1ccc(C(=O)NC2=NC(C(=O)O)CS2)cc1 (stereo not drawn) [2-[(4-methylphenyl)carbonylamino]-1,3-thiazoline-4-carboxylic acid] | elevate cellular expression of the ABCA-1 gene |
| Cc1ccc2nc(-c3ccc(NC(=O)c4ccco4)cc3)sc2c1 [2-furyl-N-[4-(6-methylbenzothiazol-2-yl)phenyl]carboxamide] | elevate cellular expression of the ABCA-1 gene |
| CS(=O)(=O)c1ccc2nc(NC(=O)c3ccco3)sc2c1 [2-furyl-N-[6-(methylsulfonyl)benzothiazol-2-yl]carboxamide] | elevate cellular expression of the ABCA-1 gene |
| O=C(Nc1ccc2c(c1)CCC2)c1ccco1 [2-furyl-N-indan-5-ylcarboxamide] | elevate cellular expression of the ABCA-1 gene |
| Cc1c(Nc2nc(-c3ccc4ccccc4c3)cs2)cccc1C(=O)O [2-methyl-3-[(4-(2-naphthyl)(1,3-thiazol-2-yl))amino]benzoic acid] | elevate cellular expression of the ABCA-1 gene |
| O=C(NCCc1ccccc1)c1ccc2ccccc2c1 [2-naphthyl-N-(2-phenylethyl)carboxamide] | elevate cellular expression of the ABCA-1 gene |
| O=C(Nc1ncc(-c2ccccc2)s1)c1ccc2ccccc2c1 [2-naphthyl-N-(5-phenyl(1,3-thiazol-2-yl))carboxamide] | elevate cellular expression of the ABCA-1 gene |
| O=C(Nc1nccs1)c1ccccc1C(F)(F)F [2-trifluoromethylphenyl-N-(1,3-thiazol-2-yl)carboxamide] | elevate cellular expression of the ABCA-1 gene |
| CC(C)(C)c1ccc(C(=O)NC2=NC(C(=O)O)CS2)cc1 (stereo not drawn) [2-{[4-(tert-butyl)phenyl]carbonylamino}-1,3-thiazoline-4-carboxylic acid] | elevate cellular expression of the ABCA-1 gene |
| O=C(Nc1cccc(Cl)c1)Nc1ccccc1C(=O)O [2-{[N-(3-chlorophenyl)carbamoyl]amino}benzoic acid] | elevate cellular expression of the ABCA-1 gene |
| O=C(Nc1ccc(Cl)cc1)Nc1ccccc1C(=O)O [2-{[N-(4-chlorophenyl)carbamoyl]amino}benzoic acid] | elevate cellular expression of the ABCA-1 gene |
| O=C(NC1=NCCS1)c1ccc2c(c1)OCO2 [2H-benzo[3,4-d]1,3-dioxolan-5-yl-N-(1,3-thiazolin-2-yl)carboxamide] | elevate cellular expression of the ABCA-1 gene |
